According to PMC11649115, “In vitro safety evaluation of dopamine D3R antagonist, R-VK4-116, as a potential medication for the treatment of opioid use disorder” (PLOS ONE, 2024):
Like-named read-outs stand apart in the source and are kept apart here.

Key:
CYP1A2 mRNA = assay: CYP induction, mRNA, primary cultured human hepatocytes; format: in vitro ADME; conditions: read-out: CYP1A2 mRNA Fold Induction (fold of vehicle control)
Text: (§1) Rifampicin as a positive control and solvent (0.1% DMSO) vehicle control were also included. The acceptance criteria for CYP induction was ≥ 2-fold induction for significant CYP activity, while the acceptance criteria for CYP mRNA was ≥ 4-fold for significant CYP induction.

P-gp = biological target: T1, P-gp (Homo sapiens, UniProt P08183); assay: Transporter mediated assay (substrate/inhibitor), MDCK-II cells; format: in vitro ADME; conditions: human
T1 construct: expressed in transfected cells; host or cells: MDCK-II cells
Experimental: The MDCK-II cells were treated to express the transporter of interest.
For BCRP and P-gp, the apparent permeability Papp and Efflux Ratio (ER) were calculated [16]. Net basal (B) to apical (A) flux (B → A) of the substrate transport (pmol/min/cm^2) by BCRP or P-gp was calculated by subtracting A → B flux from B → A flux.

human hepatocytes = assay: MTT assay, hepatocyte viability; format: cell-based
HepG2 cells = assay: Cytotoxicity MTT assay in HepG2; format: cell-based; conditions: 72-hr, 10 to 100 μM
OATP1B3 = biological target: T2, OATP1B3 (Homo sapiens, UniProt Q9NPD5); assay: Transporter mediated assay (substrate/inhibitor), MDCK-II cells; format: in vitro ADME
T2 construct: expressed in transfected cells; host or cells: MDCK-II cells
T2 sequence (Q9NPD5 1-702): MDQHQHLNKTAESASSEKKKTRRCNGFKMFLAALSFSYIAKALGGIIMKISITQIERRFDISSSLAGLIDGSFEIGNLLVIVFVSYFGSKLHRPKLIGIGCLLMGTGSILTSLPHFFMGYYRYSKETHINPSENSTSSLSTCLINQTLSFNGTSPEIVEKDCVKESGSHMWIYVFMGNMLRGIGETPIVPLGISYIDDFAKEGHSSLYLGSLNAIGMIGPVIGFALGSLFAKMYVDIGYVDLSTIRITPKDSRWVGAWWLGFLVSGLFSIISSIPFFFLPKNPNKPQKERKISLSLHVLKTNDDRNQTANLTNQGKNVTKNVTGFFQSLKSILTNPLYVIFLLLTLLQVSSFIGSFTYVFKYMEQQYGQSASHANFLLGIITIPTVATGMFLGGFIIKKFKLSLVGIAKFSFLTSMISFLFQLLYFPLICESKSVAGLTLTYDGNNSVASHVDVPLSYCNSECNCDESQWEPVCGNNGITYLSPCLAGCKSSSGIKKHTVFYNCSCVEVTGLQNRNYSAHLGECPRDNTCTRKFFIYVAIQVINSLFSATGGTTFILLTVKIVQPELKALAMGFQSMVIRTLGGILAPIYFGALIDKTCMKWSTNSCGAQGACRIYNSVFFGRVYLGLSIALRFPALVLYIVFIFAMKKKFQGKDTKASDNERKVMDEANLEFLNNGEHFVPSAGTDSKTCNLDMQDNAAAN
Experimental: (§2) The MDCK-II cells were treated to express the transporter of interest. The transport of each probe substrate was determined by radiometric detection (Fig 1 in S1 File). […] For the uptake assay, the net transporter-mediated uptake-rate (V) of the substrate by each SLC transporter was calculated as follows: Transporter–mediatedupdaterate(pmol/min/cm^2)=(Cellularaccumulationincellsexpressingthetransporter)−(Meancellularaccumulationincontrolcells)/Surfacearea×incubationtime
(§3) Fold of activity and percent inhibition were determined as follows: Foldofactivity=(Meanuptakerate)transporterexpressingcells/(Meanuptakerate)controlcells Percentinhibition=100−100×(Transport‐mediatedupdaterate)withinhibitor/(Transport‐mediatedupdaterate)vehiclecontrol

CYP1A2 = assay: CYP induction, in situ catalytic activity, human hepatocytes; format: in vitro ADME
Text: as §1

[1] = system: 403 non-mutant human kinases; conditions: screening concentration 1 µM, S-score with % Control <35
Experimental: Briefly, E. coli host derived from the BL21 strain were grown to log-phase and infected with kinase-tagged T7 phage and incubated with shaking at 32°C until lysis. The lysates were centrifuged and filtered to remove cell debris. The remaining kinases were produced in HEK-293 cells and subsequently tagged with DNA for qPCR detection. Streptavidin-coated magnetic beads were treated with biotinylated small molecule ligands to generate affinity resins for kinase assays. The liganded beads were blocked with excess biotin and washed to remove unbound ligand and to reduce non-specific phage binding. […] Selectivity Score (S-score) was a quantitative measure of compound selectivity. […] The binding constants (Kds) were also determined with a standard dose-response curve using the Hill equation and Levenberg-Marquardt algorithm [24, 25].

MATE1 = biological target: T3, MATE1 (Homo sapiens, UniProt Q96FL8); assay: Transporter mediated assay (substrate/inhibitor), MDCK-II cells; format: in vitro ADME
T3 construct: expressed in transfected cells; host or cells: MDCK-II cells
T3 sequence (Q96FL8 1-570): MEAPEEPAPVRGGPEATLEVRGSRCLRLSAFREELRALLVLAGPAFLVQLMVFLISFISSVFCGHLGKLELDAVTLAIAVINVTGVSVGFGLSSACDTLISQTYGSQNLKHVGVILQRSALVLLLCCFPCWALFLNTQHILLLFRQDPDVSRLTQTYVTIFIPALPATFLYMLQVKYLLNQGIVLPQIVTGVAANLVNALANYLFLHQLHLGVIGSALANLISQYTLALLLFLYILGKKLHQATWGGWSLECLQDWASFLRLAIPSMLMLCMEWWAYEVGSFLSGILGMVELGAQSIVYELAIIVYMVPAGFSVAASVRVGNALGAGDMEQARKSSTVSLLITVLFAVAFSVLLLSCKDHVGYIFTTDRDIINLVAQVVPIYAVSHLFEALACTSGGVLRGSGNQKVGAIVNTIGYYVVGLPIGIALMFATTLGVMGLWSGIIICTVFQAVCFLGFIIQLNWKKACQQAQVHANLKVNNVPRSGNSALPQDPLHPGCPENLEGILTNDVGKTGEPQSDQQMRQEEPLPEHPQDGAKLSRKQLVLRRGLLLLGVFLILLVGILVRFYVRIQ
Experimental: as §2, §3

[2] = MDCK-MDR1, P-gp, substrate test, 1 µM

T1 sequence (P08183 whole entry): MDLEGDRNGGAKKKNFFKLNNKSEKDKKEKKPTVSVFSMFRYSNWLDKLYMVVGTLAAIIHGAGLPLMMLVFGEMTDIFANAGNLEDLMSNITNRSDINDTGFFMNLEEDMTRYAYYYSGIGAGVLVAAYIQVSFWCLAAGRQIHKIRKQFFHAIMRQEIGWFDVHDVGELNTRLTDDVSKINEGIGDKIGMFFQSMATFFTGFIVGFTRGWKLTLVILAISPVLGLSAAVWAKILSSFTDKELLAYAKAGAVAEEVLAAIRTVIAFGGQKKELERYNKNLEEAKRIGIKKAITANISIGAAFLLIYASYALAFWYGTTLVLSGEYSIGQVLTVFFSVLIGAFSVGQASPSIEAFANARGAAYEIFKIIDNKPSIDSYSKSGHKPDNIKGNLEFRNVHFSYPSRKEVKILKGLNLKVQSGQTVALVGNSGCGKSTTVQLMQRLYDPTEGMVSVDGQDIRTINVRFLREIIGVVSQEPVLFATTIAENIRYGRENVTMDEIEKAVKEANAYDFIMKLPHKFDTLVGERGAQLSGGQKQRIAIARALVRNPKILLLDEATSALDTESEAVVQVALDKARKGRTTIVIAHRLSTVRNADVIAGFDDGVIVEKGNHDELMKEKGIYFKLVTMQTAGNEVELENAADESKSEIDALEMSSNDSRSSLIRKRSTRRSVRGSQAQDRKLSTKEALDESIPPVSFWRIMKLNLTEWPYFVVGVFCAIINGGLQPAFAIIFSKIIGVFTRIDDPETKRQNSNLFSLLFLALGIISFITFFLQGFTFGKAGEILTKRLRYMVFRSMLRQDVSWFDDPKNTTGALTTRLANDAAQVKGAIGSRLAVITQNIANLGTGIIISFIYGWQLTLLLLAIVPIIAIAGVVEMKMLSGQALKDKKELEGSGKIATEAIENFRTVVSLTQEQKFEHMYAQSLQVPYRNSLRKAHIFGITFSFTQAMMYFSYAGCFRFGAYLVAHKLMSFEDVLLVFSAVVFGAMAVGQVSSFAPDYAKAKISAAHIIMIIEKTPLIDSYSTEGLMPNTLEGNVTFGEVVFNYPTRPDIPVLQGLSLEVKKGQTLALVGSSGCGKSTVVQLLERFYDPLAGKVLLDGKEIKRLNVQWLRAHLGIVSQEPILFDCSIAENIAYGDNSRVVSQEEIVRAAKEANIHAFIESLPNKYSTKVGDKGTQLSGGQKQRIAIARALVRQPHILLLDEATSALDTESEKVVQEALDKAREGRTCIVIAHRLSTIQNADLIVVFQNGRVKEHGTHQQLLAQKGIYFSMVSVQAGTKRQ

CCc1cc(Cl)c(OC)c(N2CCN(CC(O)CCNC(=O)c3cc4ccccc4[nH]3)CC2)c1 (stereo not shown) [R-VK4-116, N-(4-(4-(3-chloro-5-ethyl-2-methoxyphenyl)piperazin-1-yl)-3-hydroxybutyl)-1H-indole-2-carboxamide]
fold induction at 48 h, 0.01 µM (CYP1A2 mRNA; Lot 336, 0.01 μM): 1.1 | fold induction at 48 h, 0.1 µM (CYP1A2 mRNA; Lot 336, 0.1 μM): 1.2 | fold induction at 48 h, 1 µM (CYP1A2 mRNA; Lot 336, 1 μM): 1.6 | fold induction at 48 h, 3 µM (CYP1A2 mRNA; Lot 336, 3 μM): 1.9 | fold induction at 48 h, 5 µM (CYP1A2 mRNA; Lot 336, 5 μM): 1.8 | fold induction at 48 h, 10 µM (CYP1A2 mRNA; Lot 336, 10 μM): 1.9 | fold induction at 48 h, 0.01 µM (CYP1A2 mRNA; Lot 348B, 0.01 μM): 1.1 | fold induction at 48 h, 0.1 µM (CYP1A2 mRNA; Lot 348B, 0.1 μM): 1.4 | fold induction at 48 h, 1 µM (CYP1A2 mRNA; Lot 348B, 1 μM): 1.3 | fold induction at 48 h, 3 µM (CYP1A2 mRNA; Lot 348B, 3 μM): 1.5 | fold induction at 48 h, 5 µM (CYP1A2 mRNA; Lot 348B, 5 μM): 1.6 | fold induction at 48 h, 10 µM (CYP1A2 mRNA; Lot 348B, 10 μM): 1.5 | fold induction at 48 h, 0.01 µM (CYP1A2 mRNA; Lot 399, 0.01 μM): 1.6 | fold induction at 48 h, 0.1 µM (CYP1A2 mRNA; Lot 399, 0.1 μM): 1.8 | fold induction at 48 h, 1 µM (CYP1A2 mRNA; Lot 399, 1 μM): 1.7 | fold induction at 48 h, 3 µM (CYP1A2 mRNA; Lot 399, 3 μM): 1.9 | fold induction at 48 h, 5 µM (CYP1A2 mRNA; Lot 399, 5 μM): 1.6 | fold induction at 48 h, 10 µM (CYP1A2 mRNA; Lot 399, 10 μM): 1.6 | Papp A→B at 1 µM (P-gp; [2]): < 0.2 ×10⁻⁶ cm/s | Papp B→A at 1 µM (P-gp; [2]): < 0.1 ×10⁻⁶ cm/s | inhibition at 10 µM (P-gp; probe quinidine 0.1 μM): 56.5 ± 6.17% | Hepatocyte Viability, MTT Assay Upfront (Mean) (human hepatocytes; 0.01 µM): 93 | Hepatocyte Viability, MTT Assay Upfront (Mean) (human hepatocytes; 0.1 µM): 105 | Hepatocyte Viability, MTT Assay Upfront (Mean) (human hepatocytes; 1 µM): 86 | Hepatocyte Viability, MTT Assay Upfront (Mean) (human hepatocytes; 3 µM): 91 | Hepatocyte Viability, MTT Assay Upfront (Mean) (human hepatocytes; 10 μM): 73 | Hepatocyte Viability, MTT Assay Upfront (Mean) (human hepatocytes; 30 µM): 73 | Hepatocyte Viability, Concurrent MTT Assay (Mean) (human hepatocytes; Lot 336, 0.01 µM): 96 | Hepatocyte Viability, Concurrent MTT Assay (Mean) (human hepatocytes; Lot 336, 0.10 µM): 90 | Hepatocyte Viability, Concurrent MTT Assay (Mean) (human hepatocytes; Lot 336, 1 µM): 91 | Hepatocyte Viability, Concurrent MTT Assay (Mean) (human hepatocytes; Lot 336, 3 µM): 80 | Hepatocyte Viability, Concurrent MTT Assay (Mean) (human hepatocytes; Lot 336, 5 µM): 75 | Hepatocyte Viability, Concurrent MTT Assay (Mean) (human hepatocytes; Lot 336, 10 µM): 73 | Hepatocyte Viability, Concurrent MTT Assay (Mean) (human hepatocytes; Lot 348B, 0.01 µM): 100 | Hepatocyte Viability, Concurrent MTT Assay (Mean) (human hepatocytes; Lot 348B, 0.10 µM): 101 | Hepatocyte Viability, Concurrent MTT Assay (Mean) (human hepatocytes; Lot 348B, 1 µM): 104 | Hepatocyte Viability, Concurrent MTT Assay (Mean) (human hepatocytes; Lot 348B, 3 µM): 96 | Hepatocyte Viability, Concurrent MTT Assay (Mean) (human hepatocytes; Lot 348B, 5 µM): 97 | Hepatocyte Viability, Concurrent MTT Assay (Mean) (human hepatocytes; Lot 348B, 10 µM): 102 | Hepatocyte Viability, Concurrent MTT Assay (Mean) (human hepatocytes; Lot 399, 0.01 µM): 107 | Hepatocyte Viability, Concurrent MTT Assay (Mean) (human hepatocytes; Lot 399, 0.10 µM): 104 | Hepatocyte Viability, Concurrent MTT Assay (Mean) (human hepatocytes; Lot 399, 1 µM): 95 | Hepatocyte Viability, Concurrent MTT Assay (Mean) (human hepatocytes; Lot 399, 3 µM): 88 | Hepatocyte Viability, Concurrent MTT Assay (Mean) (human hepatocytes; Lot 399, 5 µM): 86 | Hepatocyte Viability, Concurrent MTT Assay (Mean) (human hepatocytes; Lot 399, 10 µM): 91 | hepatocyte viability, concurrent MTT assay (human hepatocytes; ≤ 10 μM): no decrease of hepatocyte viability | decrease in HepG2 cell viability compared with the solvent control (MTT) (HepG2 cells): 40–50% | fold difference in mean uptake rate (substrate test) (OATP1B3; OATP1B3, 1 μM, transporter cells vs control cells): < 2 fold | Inhibition (%) (OATP1B3; OATP1B3, 0.1% BSA, 10 μM): no statistically significant inhibition | inhibition at 10 µM (OATP1B3; human, polarized monolayer of MDCK-II cells expressing OATP1B3, OATP1B3, 0.1% BSA, 10 μM): 5.29 ± 10.7% | CYP1A2 activity, Fold of Vehicle Control (CYP1A2; Lot 336, 0.01 µM): 0.96 fold | Phenacetin-O- deethylation (CYP1A2; Lot 336, 0.01 µM): 1.1 pmol/min/106 cells | CYP1A2 activity, Fold of Vehicle Control (CYP1A2; Lot 336, 0.1 µM): 0.96 fold | Phenacetin-O- deethylation (CYP1A2; Lot 336, 0.1 µM): 1.1 pmol/min/106 cells | CYP1A2 activity, Fold of Vehicle Control (CYP1A2; Lot 336, 1 µM): 1.2 fold | Phenacetin-O- deethylation (CYP1A2; Lot 336, 1 µM): 1.4 pmol/min/106 cells | CYP1A2 activity, Fold of Vehicle Control (CYP1A2; Lot 336, 3 µM): 1.5 fold | Phenacetin-O- deethylation (CYP1A2; Lot 336, 3 µM): 1.8 pmol/min/106 cells | CYP1A2 activity, Fold of Vehicle Control (CYP1A2; Lot 336, 5 µM): 1.6 fold | Phenacetin-O- deethylation (CYP1A2; Lot 336, 5 µM): 1.8 pmol/min/106 cells | CYP1A2 activity, Fold of Vehicle Control (CYP1A2; Lot 336, 10 µM): 1.5 fold | CYP1A2 activity, Fold of Vehicle Control (CYP1A2; Lot 348B, 0.01 µM): 0.92 fold | CYP1A2 activity, Fold of Vehicle Control (CYP1A2; Lot 348B, 0.1 µM): 0.91 fold | CYP1A2 activity, Fold of Vehicle Control (CYP1A2; Lot 348B, 1 µM): 0.99 fold | CYP1A2 activity, Fold of Vehicle Control (CYP1A2; Lot 348B, 3 µM): 1.1 fold | CYP1A2 activity, Fold of Vehicle Control (CYP1A2; Lot 348B, 5 µM): 1.1 fold | CYP1A2 activity, Fold of Vehicle Control (CYP1A2; Lot 348B, 10 µM): 1.1 fold | CYP1A2 activity, Fold of Vehicle Control (CYP1A2; Lot 399, 0.01 µM): 1.1 fold | Phenacetin-O- deethylation (CYP1A2; Lot 399, 0.01 µM): 8.8 pmol/min/106 cells | CYP1A2 activity, Fold of Vehicle Control (CYP1A2; Lot 399, 0.1 µM): 1.1 fold | Phenacetin-O- deethylation (CYP1A2; Lot 399, 0.1 µM): 9.4 pmol/min/106 cells | CYP1A2 activity, Fold of Vehicle Control (CYP1A2; Lot 399, 1 µM): 1.1 fold | Phenacetin-O- deethylation (CYP1A2; Lot 399, 1 µM): 9.3 pmol/min/106 cells | CYP1A2 activity, Fold of Vehicle Control (CYP1A2; Lot 399, 3 µM): 1.2 fold | Phenacetin-O- deethylation (CYP1A2; Lot 399, 3 µM): 9.8 pmol/min/106 cells | CYP1A2 activity, Fold of Vehicle Control (CYP1A2; Lot 399, 5 µM): 1.2 fold | Phenacetin-O- deethylation (CYP1A2; Lot 399, 5 µM): 10 pmol/min/106 cells | CYP1A2 activity, Fold of Vehicle Control (CYP1A2; Lot 399, 10 µM): 1.1 fold | Phenacetin-O- deethylation (CYP1A2; Lot 399, 10 µM): 9.0 pmol/min/106 cells | Selectivity score [1]: 0.012 | fold difference in mean uptake rate (substrate test) (MATE1; MATE1, 1 μM, transporter cells vs control cells): < 2 fold | inhibition at 10 µM (MATE1; human, polarized monolayer of MDCK-II cells expressing MATE1, MATE1, 0.1% BSA, 10 μM): 19.4 ± 7.57%
